Data reported in patent US6716422B1, “Vaccine adjuvants for immunotherapy of melanoma” (ARCH Development Corporation, priority 1998, dated 2004).
Ends that are not written are not given here.

What was measured:
[1] = system: melanoma cell lines expressing MAGE-3; conditions: activated B cells or dendritic cells, HLA-A2 donor; only if IL-12 included during initial stimulation; cited from earlier work
[2] = system: refractory metastatic melanoma; assay: Human vaccination study: clinical outcome; type: in vivo; conditions: one line per patient
Excerpt: Evaluation of tumor regression is a secondary endpoint in this study. Tumor masses are characterized carefully with bidimensional measurements.
Criteria for a Partial Response (PR): 50% reduction in the sum of the product of the largest perpendicular diameters of the indicator lesions identified prior to therapy.
Criteria for a Complete Response (CR): total disappearance of all evidence of tumor without appearance of new lesions.
Criteria for Progressive Disease (PD): appearance of new lesions; and/or fifty percent increase in the sum of the product of the largest perpendicular diameters of the indicator lesions.
Criteria for Stable Disease (SD): Failure to meet the criteria for a Partial Response, Complete Response, or Progressive Disease.

[3] = system: peptide-specific, IFN-γ-producing CD8+ T cells; assay: Human vaccination study: peptide-specific T cell response; conditions: one line per patient
Protocol: Following immunization, assays for peptide specific CTL activity and cytokine production, in particular IFN-γ were conducted.
For each vaccination, 100 cc heparinized blood was obtained and PBMC isolated by Lymphoprep centrifugation. A portion of cells was set aside and separated into CD8+ and CD8-fractions for cryopreservation.
Pulsed PBMC were irradiated (2000 rad), centrifuged, and resuspended in 2 cc DPBS for injection.
Injection of pulsed PBMC was performed subcutaneously, divided between 2 sites, either in upper arms or proximal legs.
rhIL-12, at the assigned dose level (ng/kg), was injected subcutaneously near one of the two vaccine sites.
The entire procedure was repeated every 3 weeks, with clinical reevaluation every 3 cycles.
In vitro expansion of CD8^+ T cells for testing was performed using minimal activation conditions: peptide-pulsed CD8-negative cells as APCs, only 10 U/ml rIL-2 added on day 2 of each stimulation, with one 6-day stimulation followed by a second 4-5 day stimulation.

[4] = Relative hydrophilicity/solubility of tumor peptides; type: physicochemical
Protocol: Peptides encoded by several of the unique tumor antigens of the tum^− variants have been defined, such as the P198 peptide used in one of the examples herein. […] Therefore, initial peptide-based immunization studies were performed using the more soluble P198 peptide. Information gained was then examined using P1A peptide as well. Studies with P1A are important in order to measure efficacy of immunization in vivo in terms of protection against living tumor challenge and regression of pre-established tumors. These types of studies would not be possible with P198 because that tumor is rejected spontaneously.

[5] = cited from earlier work
[6] = cited from earlier work; remark: listed apart in the source
[7] = system: advanced renal cell carcinoma; conditions: cited from earlier work
[8] = room temperature; cited from earlier work

Substance: FLWGPRALV [Mage3]
- Induction of specific CTL [1]: specific CTL induced
- Clinical Outcome ([2]; IL-12 dose 0): PD (appearance of new lesions; and/or fifty percent increase in the sum of the product of the largest perpendicular diameters of the indicator lesions)
- Clinical Outcome ([2]; IL-12 dose 30 ng/kg): PD (appearance of new lesions; and/or fifty percent increase in the sum of the product of the largest perpendicular diameters of the indicator lesions)
- Clinical Outcome ([2]; IL-12 dose 100 ng/kg): PD (appearance of new lesions; and/or fifty percent increase in the sum of the product of the largest perpendicular diameters of the indicator lesions)
- Evidence Immunized? ([3]; IL-12 dose 0): No
- Evidence Immunized? ([3]; IL-12 dose 30 ng/kg): Yes

Substance: KYQAVTTTL [P198 peptide]
- Hydrophilicity relative to P1A peptide [4]: more hydrophilic than the P1A peptide

Substance: rhIL-12: recombinant human interleukin-12, manufactured by the Genetics Institute
- Toxicities ([5]; intravenous, 3-1000 ng/kg/day): transient cytopenias (nadirs occurring 2-5 days after treatment), reversible increases of transaminases and bilirubin, transient hyperglycemia, stomatitis, and capillary leak syndrome
- Maximally tolerated dose ([5]; intravenous, single test dose, 2 wk later daily for 5 days, every 3 wk): 500 ng/kg/day
- Tumor responses ([5]; patients with various malignancies): several tumor responses observed
- Tolerability ([6]; in vivo): well tolerated
- Renal cell carcinoma patients with a minor response ([6]; subcutaneous schedule): Two
- Patients requiring hospitalization for adverse events ([7]; 500 ng/kg/day intravenously 5 times per wk, 16 day rest): 12 of the 17
- Deaths attributed to rhIL-12 ([7]; 500 ng/kg/day intravenously): Two
- Patient deaths ([7]; 500 ng/kg/day intravenously): 4
- Time within which unit doses in a syringe must be used [8]: ≤ 4 h
